The values that follow come from patent US7858644B2, “EP4 receptor antagonists” (Asterand UK Limited, priority 2003, dated 2010).

Counter-ions that a name gives are not always drawn.

The target of one experiment is T1, human EP3 receptor (Homo sapiens, UniProt P43115).
T1 construct: expressed in transfected cells
T1 sequence (P43115 1-390): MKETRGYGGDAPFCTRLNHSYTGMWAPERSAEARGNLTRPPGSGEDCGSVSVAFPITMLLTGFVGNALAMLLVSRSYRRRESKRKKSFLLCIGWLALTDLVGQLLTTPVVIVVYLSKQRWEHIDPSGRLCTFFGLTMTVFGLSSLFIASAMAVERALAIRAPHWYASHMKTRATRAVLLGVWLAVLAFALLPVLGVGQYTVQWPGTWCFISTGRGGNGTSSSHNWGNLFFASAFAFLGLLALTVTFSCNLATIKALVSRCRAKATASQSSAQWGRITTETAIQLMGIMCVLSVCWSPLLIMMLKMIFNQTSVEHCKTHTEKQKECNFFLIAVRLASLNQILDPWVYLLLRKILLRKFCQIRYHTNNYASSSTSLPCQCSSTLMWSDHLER
The experiment in a line: Binding ability to human EP3 receptor ([3H]PGE2 displacement). To be noted: membranes from cells stably transfected with human EP receptor cDNA; [3H]PGE2 2.5 nM; Cheng-Prusoff from IC50; read-out: pKi EP3 (converted). As to the method:
(§1) Membranes were prepared from cells stably transfected with human EP receptor cDNA. In brief, cells were cultured to confluency, scraped from culture flasks, and centrifuged (800 g, 8 minutes, 4° C.). Cells were twice washed in ice cold homogenisation buffer containing 10 mMTris-HCl, 1 mM EDTA. 2Na, 250 mM sucrose, 1 mM PMSF, 0.3 mM indomethacin, pH 7.4, homogenised and re-centrifuged as before. The supernatant was stored on ice and pellets re-homogenised and re-spun. Supernatants were pooled and centrifuged at 40000 g, 10 minutes, 4° C. Resultant membrane pellets were stored at −80° C. until use.
(§2) For assay, membranes expressing human EP4, EP3, EP2 or EP1 receptors were incubated in Millipore (MHVBN45) plates containing assay buffer, radiolabelled [^3H]PGE2 and 0.1 to 10 000 nM concentrations of compounds. Incubations were performed at suitable temperatures and for suitable times to allow equilibrium to be reached. Non-specific binding was determined in the presence of 10 uM PGE2. Bound and free radiolabel was separated by vacuum manifold filtration using appropriate wash buffers, and bound radiolabel was determined by scintillation counting. Constituents of each of the buffers are included in table 1 below.
(§3) This approach follows that set out in Kenakin, T. P., Pharmacologic analysis of drug receptor interaction. Raven Press, New York, 2nd edition.

The target in another experiment is T2, human EP2 receptor (Homo sapiens, UniProt P43116).
T2 construct: expressed in transfected cells
Description: Binding ability to human EP2 receptor ([3H]PGE2 displacement). The note with it: read-out: pKi EP2 (converted). As to the method: as §1, §2, §3

T2 sequence (P43116 whole entry): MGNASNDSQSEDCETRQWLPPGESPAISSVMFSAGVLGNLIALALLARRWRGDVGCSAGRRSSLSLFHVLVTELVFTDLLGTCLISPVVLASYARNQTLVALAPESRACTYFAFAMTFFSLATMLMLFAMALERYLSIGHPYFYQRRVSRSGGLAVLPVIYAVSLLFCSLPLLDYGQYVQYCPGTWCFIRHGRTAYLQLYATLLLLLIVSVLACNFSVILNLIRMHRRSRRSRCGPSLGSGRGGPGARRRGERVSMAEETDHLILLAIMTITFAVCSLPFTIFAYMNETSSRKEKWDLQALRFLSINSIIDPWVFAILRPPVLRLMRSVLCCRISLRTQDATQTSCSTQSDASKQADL

As for `Cc1oc(C(=O)O)cc1COc1ccc(-c2ccc(Cl)cc2)cc1` [Compound 27, 4-(4′-Chloro-biphenyl-4-yloxymethyl)-5-methyl-furan-2-carboxylic acid], the figures for the Ki at human EP3 receptor and at human EP2 receptor were over 10 µM and over 3.16 µM, respectively.
The matching figures for `Cc1oc(C(=O)NS(=O)(=O)c2ccccc2)cc1CNc1ccc(-c2ccccc2)cc1` [Compound 161, N-[4-(biphenyl-4-ylaminomethyl)-5-methyl-furan-2-carbonyl]-benzenesulphonamide]: over 10 µM and over 10 µM.
In the case of `Cc1ccccc1S(=O)(=O)NC(=O)c1cc(CNc2ccc(-c3ccccc3)cc2)c(C)o1` [Compound 162, N-[4-(Biphenyl-4-ylaminomethyl)-5-methyl-furan-2-carbonyl]-2-methyl-benzenesulfonamide], the Ki on human EP3 receptor and on human EP2 receptor was over 10 µM each time.
Regarding `Cc1oc(C(=O)O)cc1COc1ccc(-c2ccc(C#N)cc2)cc1` [Compound 57, 4-(4′-Cyano-biphenyl-4-yloxymethyl)-5-methyl-furan-2-carboxylic acid], the Ki on human EP3 receptor and on human EP2 receptor was over 10 µM in each case.
For `CC(=O)c1ccc(-c2ccc(OCc3cc(C(=O)O)oc3C)cc2)cc1` [Compound 21, 4-(4′-Acetyl-biphenyl-4-yloxymethyl)-5-methyl-furan-2-carboxylic acid], the Ki on human EP3 receptor and on human EP2 receptor was over 10 µM each time.
As for `COc1ccc(-c2ccc(OCc3cc(C(=O)O)oc3C)cc2)cc1` [Compound 4, 4-(4′-Methoxy-biphenyl-4-yloxymethyl)-5-methyl-furan-2-carboxylic acid], the Ki at human EP3 receptor and on human EP2 receptor was over 10 µM in each case.
Regarding `Cc1ccccc1S(=O)(=O)NC(=O)c1cc(CNc2ccc(-c3ccc(OC(F)F)cc3)cc2)c(C)o1` [Compound 173, N-{4-[(4′-Difluoromethoxy-biphenyl-4-ylamino)-methyl]-5-methyl-furan-2-carbonyl}-2-methyl-benzenesulphonamide], the values for the Ki at human EP3 receptor and at human EP2 receptor were over 10 µM and over 3.16 µM, respectively.
Take `COc1ccc(-c2ccc(OCc3cc(C(=O)NS(=O)(=O)c4ccc(O)cc4)oc3C)cc2)cc1` [Compound 13, 4-Hydroxy-N-[4-(4′-methoxy-biphenyl-4-yloxymethyl)-5-methyl-furan-2-carbonyl]-benzenesulfonamide]: the Ki on human EP3 receptor and on human EP2 receptor was over 10 µM in each case.
Consider `COc1ccc(-c2ccc(OCc3cc(C(=O)NS(=O)(=O)c4cccs4)oc3C)cc2)cc1` [Compound 10, Thiophene-2-sulfonic acid [4-(4′-methoxy-biphenyl-4-yloxymethyl)-5-methyl-furan-2-carbonyl]-amide], for which the figures for the Ki at human EP3 receptor and on human EP2 receptor were over 10 µM and over 3.16 µM, respectively.
The matching figures for `Cc1oc(C(=O)O)cc1COc1ccc(-c2ccc(OC(F)(F)F)cc2)cc1` [Compound 114, 5-Methyl-4-(4′-trifluoromethoxy-biphenyl-4-yloxymethyl)-furan-2-carboxylic acid]: over 10 µM and over 10 µM.
The matching figures for `Cc1oc(C(=O)O)cc1COc1ccc(-c2ccc(OC(F)F)cc2)cc1` [Compound 129, 4-(4′-Difluoromethoxy-biphenyl-4-yloxymethyl)-5-methyl-furan-2-carboxylic acid]: over 10 µM and over 10 µM.
Taken in the same sequence, the figures for `COc1ccc(-c2ccc(OCc3cc(C(=O)NS(=O)(=O)c4ccc(C)cn4)oc3C)cc2)cc1` [Compound 11, 5-Methyl-pyridyl-2-sulfonic acid [4-(4′-methoxy-biphenyl-4-yloxymethyl)-5-methyl-furan-2-carbonyl]-amide] were over 10 µM and over 10 µM.
In the case of `O=C(O)c1cc(COc2ccc(-c3ccccc3)cc2)co1` [Compound 77, 4-(Biphenyl-4-yloxymethyl)-furan-2-carboxylic acid], the Ki at human EP3 receptor and on human EP2 receptor was over 10 µM in each case.
Turning to `COc1ccccc1-c1ccc(OCc2cc(C(=O)NS(=O)(=O)c3ccccc3)oc2C)cc1` [Compound 127, N-[4-(2′-Methoxy-biphenyl-4-yloxymethyl)-5-methyl-furan-2-carbonyl]-benzenesulphonamide], the Ki on human EP3 receptor and at human EP2 receptor was over 10 µM in each case.
With `COc1ccc(-c2ccc(OCc3cc(C(=O)NS(=O)(=O)CCCN4CCOCC4)oc3C)cc2)cc1` [Compound 59, 3-Morpholin-4-yl-propane-1-sulphonic acid [4-(4′-methoxy-biphenyl-4-yloxymethyl)-5-methyl-furan-2-carbonyl]-amide], the Ki on human EP3 receptor and at human EP2 receptor was over 10 µM in each case.
Turning to `COc1ccc(-c2ccc(OCc3cc(C(=O)NS(=O)(=O)c4ccccc4)oc3C)cc2)nc1` [Compound 132, N-{4-[4-(5-Methoxy-pyridin-2-yl)-phenoxymethyl]-5-methyl-furan-2-carbonyl}-benzenesulphonamide], the Ki at human EP3 receptor and on human EP2 receptor was over 10 µM each time.
As to `O=C(O)c1cc(COc2ccc(-c3ccccc3)cc2)c(C(F)(F)F)o1` [Compound 90, 4-(Biphenyl-4-yloxymethyl)-5-trifluoromethyl-furan-2-carboxylic acid], the Ki at human EP3 receptor and on human EP2 receptor was over 10 µM each time.
Regarding `COc1ccc(-c2ccc(OCc3cc(C(=O)NS(=O)(=O)c4ccc(CN)cc4)oc3C)cc2)cc1` [Compound 12, 4-Aminomethyl-N-[4-(4′-methoxy-biphenyl-4-yloxymethyl)-5-methyl-furan-2-carbonyl]-benzenesulfonamide trifluoroacetate], the Ki on human EP3 receptor and at human EP2 receptor was over 10 µM each time.
Consider `Cc1oc(C(=O)O)cc1COc1ccc(-c2ccc(CO)cc2)cc1` [Compound 110, 4-(4′-Hydroxymethyl-biphenyl-4-yloxymethyl)-5-methyl-furan-2-carboxylic acid], for which the Ki on human EP3 receptor and at human EP2 receptor was over 10 µM throughout.
As for `Cc1noc(C)c1S(=O)(=O)NC(=O)c1cc(COc2ccc(-c3ccc(OC(F)F)cc3)cc2)c(C)o1` [Compound 131, 3,5-Dimethyl-isoxazole-4-sulphonic acid [4-(4′-difluoromethoxy-biphenyl-4-yloxymethyl)-5-methyl-furan-2-carbonyl]-amide], the Ki was over 10 µM on human EP3 receptor and over 3.16 µM on human EP2 receptor.
The matching figures for `COc1ccc(-c2ccc(OCc3cc(C(=O)NS(=O)(=O)Cc4ccccc4)oc3C)cc2)cc1` [Compound 6, N-[4-(4′-Methoxy-biphenyl-4-yloxymethyl)-5-methyl-furan-2-carbonyl]-C-phenyl-methanesulfonamide]: over 10 µM and over 10 µM.
Taken in the same sequence, the figures for `COc1ccc(-c2ccc(OCc3cc(C(=O)NS(=O)(=O)c4ccccc4C)oc3C)cc2)nc1` [Compound 134, N-{4-[4-(5-Methoxy-pyridin-2-yl)-phenoxymethyl]-5-methyl-furan-2-carbonyl}-2-methyl-benzenesulphonamide] were over 10 µM and over 10 µM.
Taken in the same sequence, the figures for `CCCS(=O)(=O)NC(=O)c1cc(COc2ccc(-c3ccc(OC)cc3)cc2)c(C)o1` [Compound 8, Propane-1-sulfonic acid [4-(4′-methoxy-biphenyl-4-yloxymethyl)-5-methyl-furan-2-carbonyl]-amide] were over 10 µM and over 10 µM.
In the case of `COc1ccc(-c2ccc(OCc3cc(C(=O)NS(C)(=O)=O)oc3C)cc2)cc1` [Compound 7, N-[4-(4′-Methoxy-biphenyl-4-yloxymethyl)-5-methyl-furan-2-carbonyl]-methanesulfonamide], the Ki on human EP3 receptor and at human EP2 receptor was over 10 µM in each case.
As to `COc1ccc(-c2ccc(OCc3cc(C(=O)NS(=O)(=O)N(C)C)oc3C)cc2)cc1` [Compound 122, N-[4-(4′-Methoxy-biphenyl-4-yloxymethyl)-5-methyl-furan-2-carbonyl]-dimethylamino-sulphonamide], the Ki at human EP3 receptor and on human EP2 receptor was over 10 µM throughout.
Regarding `Cc1oc(C(=O)O)cc1COc1ccc(-c2ccc3c(c2)OCO3)cc1` [Compound 28, 4-(4-Benzo[1,3]dioxol-5-yl-phenoxymethyl)-5-methyl-furan-2-carboxylic acid], the Ki on human EP3 receptor and at human EP2 receptor was over 10 µM in each case.
`COc1ccc(-c2ccc(OCc3cc(C(=O)NS(=O)(=O)c4ccccc4)oc3C)cc2)cc1` [Compound 5, N-[4-(4′-Methoxy-biphenyl-4-yloxymethyl)-5-methyl-furan-2-carbonyl]-benzenesulfonamide]: the Ki on human EP3 receptor was over 10 µM; on human EP2 receptor it was over 3.16 µM.
